Measurements: US10463658B2, “Method of inhibiting FLT3 kinase” (AROG Pharmaceuticals, LLC, priority 2013, dated 2019)

What was measured:
[1] = target: T1, FLT3 (ITD, D835V) (Homo sapiens, UniProt P36888, D835V, form not given); test: KINOMEscan KdElect competitive binding assay, dual mutant FLT3 (ITD, D835V); settings: tosylate salt; read-out: Kd, FLT3 (ITD, D835V) double mutant
T1 construct: fused on or other part: DNA tag / T7 phage display tag for qPCR detection
T1 sequence (P36888 1-993 D835V): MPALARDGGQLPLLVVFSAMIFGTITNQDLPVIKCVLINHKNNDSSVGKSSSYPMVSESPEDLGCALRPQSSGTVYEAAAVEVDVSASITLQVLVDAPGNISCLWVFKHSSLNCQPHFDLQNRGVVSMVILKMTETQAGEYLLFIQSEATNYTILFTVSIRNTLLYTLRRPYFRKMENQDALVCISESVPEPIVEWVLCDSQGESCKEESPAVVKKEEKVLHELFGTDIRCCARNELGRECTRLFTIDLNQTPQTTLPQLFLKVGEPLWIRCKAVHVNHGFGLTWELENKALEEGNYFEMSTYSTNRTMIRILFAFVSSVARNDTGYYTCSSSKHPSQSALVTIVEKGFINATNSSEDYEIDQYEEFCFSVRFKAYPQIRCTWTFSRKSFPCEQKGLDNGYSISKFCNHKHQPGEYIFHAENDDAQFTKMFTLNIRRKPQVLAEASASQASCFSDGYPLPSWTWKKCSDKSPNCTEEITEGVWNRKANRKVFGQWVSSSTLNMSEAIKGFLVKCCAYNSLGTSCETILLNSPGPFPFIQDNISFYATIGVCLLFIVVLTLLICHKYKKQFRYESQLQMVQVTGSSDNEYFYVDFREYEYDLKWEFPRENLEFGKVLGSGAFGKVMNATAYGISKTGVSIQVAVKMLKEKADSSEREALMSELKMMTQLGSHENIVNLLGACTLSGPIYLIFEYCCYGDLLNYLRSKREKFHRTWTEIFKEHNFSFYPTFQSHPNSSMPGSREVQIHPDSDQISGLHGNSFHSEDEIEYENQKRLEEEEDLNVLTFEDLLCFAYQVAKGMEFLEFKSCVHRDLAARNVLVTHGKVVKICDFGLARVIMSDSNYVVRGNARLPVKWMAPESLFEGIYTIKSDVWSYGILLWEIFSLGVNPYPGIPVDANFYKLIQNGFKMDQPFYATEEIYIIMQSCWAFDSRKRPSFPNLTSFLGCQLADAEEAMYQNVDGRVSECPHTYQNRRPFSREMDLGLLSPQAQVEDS
Excerpt: (§1) Competitive binding assay.
(§2) The lysates were then centrifuged and filtered.

[2] = target: T2, FLT3 N841I (Homo sapiens, UniProt P36888, N841I); test: KINOMEscan KdElect competitive binding assay, FLT3 N841I; settings: tosylate salt; read-out: Binding Constant (Kd), FLT3 N841I
T2 construct: host or cells: E. coli BL21-derived host (T7 phage) or HEK-293
T2 sequence (P36888 610-943 N841I limits assumed): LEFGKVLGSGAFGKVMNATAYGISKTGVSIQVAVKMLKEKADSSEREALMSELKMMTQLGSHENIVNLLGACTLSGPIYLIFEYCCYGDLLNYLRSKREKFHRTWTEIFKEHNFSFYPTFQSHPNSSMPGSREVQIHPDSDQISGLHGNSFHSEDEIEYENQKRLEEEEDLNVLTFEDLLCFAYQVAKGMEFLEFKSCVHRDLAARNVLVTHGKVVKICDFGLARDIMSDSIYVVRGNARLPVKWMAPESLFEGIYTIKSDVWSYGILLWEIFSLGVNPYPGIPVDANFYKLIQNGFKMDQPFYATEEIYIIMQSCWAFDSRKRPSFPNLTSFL
Excerpt: as §1, §2

- Kd [1]: 15 pM
- Kd [2]: 390 pM
Compound: COCCOc1ccc2c(c1)ncn2-c1ccc2cccc(N3CCC(N)CC3)c2n1 [CP-673,451]
